# What was measured:
# [1] = Biodistribution of [^18F]WC-II-89 in normal and cycloheximide-treated rats; type: in vivo, Sprague-Dawley rats
# Protocol: All animal studies were performed in accordance with the regulations of the Washington University Institutional Animal Care and Use Committee. Mature male Sprague Dawley rats from Charles River Laboratories were briefly anesthetized with 1-2% isoflurane in oxygen. […] Treated rats also received 5 mg/kg cycloheximide in saline via the tail vein three hours prior to radiotracer administration in order to induce caspase-mediated liver apoptosis. At set time-points following radiopharmaceutical injection, rats were again anesthetized and euthanized. Target and non-target organs were removed, weighed, and the radioactivity was counted using a Beckman Gamma 8000 well counter. Standard dilutions of the injected dose were counted along with the samples and uptake was calculated and reported as percent injected dose per gram (% ID/g).
# This model, which uses the protein synthesis inhibitor, cycloheximide (CHX), was previously used in the evaluation of radiolabeled annexin V analogs (37). Tissue morphology and TUNEL staining studies have shown that cycloheximide induces apoptosis in rat liver in both a dose-dependent and time-dependent manner. Within 3 hours of treatment with 1.5, 3, or 10 mg of cycloheximide per kilogram of body weight, apoptosis was induced in rat liver (35, 36). Therefore, we chose 3 hours treatment of 5 mg/kg to induce the maximum apoptosis in rat liver, expecting a high level of caspase-3 activation.
# In general, the initial uptake was higher for CHX treated rats than control rats. However, the difference between control and treated rats was reduced with time with the exception of the liver and spleen.
# [2] = MicroPET imaging of [^18F]WC-II-89 in control and cycloheximide-treated rat; type: in vivo; conditions: cycloheximide 3-hour pretreated rat versus control, 10-60 minutes post-i.v. injection
# Protocol: MicroPET imaging studies were performed using a MicroPET Focus 220 and MicroPET Focus 120 scanner (Siemens/CTI, Knoxyille, Tenn.). A control and cycloheximide-treated (5 mg/kg, 3 hours pretreated) rat were anesthetized and a catheter inserted in the jugular vein. […] MicroPET images were reconstructed with OSEM-2D data analysis software package (Siemens/CTI, Knoxyille, Tenn.).
# This was also confirmed by Western blot analysis of the rat livers following completion of the microPET imaging study.
structure (smiles),measurement,setting,value
O=C1C(=O)N(Cc2ccc(OCC[18F])cc2)c2ccc(S(=O)(=O)N3CCC[C@H]3COc3ccccc3)cc21 [[^18F]WC-II-89],% I.D./gram,"[1]; blood, control rats, 5 min.",2.70 ± 0.21 % I.D./gram
same,% I.D./gram,"[1]; blood, control rats, 1 hr.",0.11 ± 0.01 % I.D./gram
same,% I.D./gram,"[1]; blood, control rats, 2 hr.",0.06 ± 0.01 % I.D./gram
same,% I.D./gram,"[1]; blood, cycloheximide-treated rats, 5 min.",3.66 ± 0.40 % I.D./gram
same,% I.D./gram,"[1]; blood, cycloheximide-treated rats, 1 hr.",0.16 ± 0.01 % I.D./gram
same,% I.D./gram,"[1]; blood, cycloheximide-treated rats, 2 hr.",0.07 ± 0.00 % I.D./gram
same,% I.D./gram,"[1]; bone, control rats, 5 min.",0.44 ± 0.04 % I.D./gram
same,% I.D./gram,"[1]; bone, control rats, 1 hr.",0.13 ± 0.02 % I.D./gram
same,% I.D./gram,"[1]; bone, control rats, 2 hr.",0.15 ± 0.06 % I.D./gram
same,% I.D./gram,"[1]; bone, cycloheximide-treated rats, 5 min.",0.66 ± 0.06 % I.D./gram
same,% I.D./gram,"[1]; bone, cycloheximide-treated rats, 1 hr.",0.12 ± 0.01 % I.D./gram
same,% I.D./gram,"[1]; bone, cycloheximide-treated rats, 2 hr.",0.13 ± 0.03 % I.D./gram
same,uptake of radioactivity in bone,"[1]; bone, defluorination",very low uptake
same,% I.D./gram,"[1]; fat, control rats, 5 min.",0.12 ± 0.02 % I.D./gram
same,% I.D./gram,"[1]; fat, control rats, 1 hr.",0.15 ± 0.02 % I.D./gram
same,% I.D./gram,"[1]; fat, control rats, 2 hr.",0.07 ± 0.01 % I.D./gram
same,% I.D./gram,"[1]; fat, cycloheximide-treated rats, 5 min.",0.09 ± 0.03 % I.D./gram
same,% I.D./gram,"[1]; fat, cycloheximide-treated rats, 1 hr.",0.14 ± 0.01 % I.D./gram
same,% I.D./gram,"[1]; fat, cycloheximide-treated rats, 2 hr.",0.09 ± 0.01 % I.D./gram
same,% I.D./gram,"[1]; kidney, control rats, 5 min.",1.25 ± 0.14 % I.D./gram
same,% I.D./gram,"[1]; kidney, control rats, 1 hr.",0.53 ± 0.07 % I.D./gram
same,% I.D./gram,"[1]; kidney, control rats, 2 hr.",0.18 ± 0.04 % I.D./gram
same,% I.D./gram,"[1]; kidney, cycloheximide-treated rats, 5 min.",1.18 ± 0.08 % I.D./gram
same,% I.D./gram,"[1]; kidney, cycloheximide-treated rats, 1 hr.",0.55 ± 0.05 % I.D./gram
same,% I.D./gram,"[1]; kidney, cycloheximide-treated rats, 2 hr.",0.23 ± 0.05 % I.D./gram
same,"uptake in liver, treated rats higher than control","[1]; liver, 1-hour post-i.v. injection, cycloheximide-treated vs control",94%
same,% I.D./gram,"[1]; liver, control rats, 5 min.",3.13 ± 0.26 % I.D./gram
same,% I.D./gram,"[1]; liver, control rats, 1 hr.",0.38 ± 0.06 % I.D./gram
same,% I.D./gram,"[1]; liver, control rats, 2 hr.",0.16 ± 0.02 % I.D./gram
same,% I.D./gram,"[1]; liver, cycloheximide-treated rats, 5 min.",4.02 ± 0.45 % I.D./gram
same,% I.D./gram,"[1]; liver, cycloheximide-treated rats, 1 hr.",0.73 ± 0.12 % I.D./gram
same,% I.D./gram,"[1]; liver, cycloheximide-treated rats, 2 hr.",0.22 ± 0.03 % I.D./gram
same,% I.D./gram,"[1]; lung, control rats, 5 min.",1.42 ± 0.34 % I.D./gram
same,% I.D./gram,"[1]; lung, control rats, 1 hr.",0.18 ± 0.03 % I.D./gram
same,% I.D./gram,"[1]; lung, control rats, 2 hr.",0.08 ± 0.01 % I.D./gram
same,% I.D./gram,"[1]; lung, cycloheximide-treated rats, 5 min.",2.08 ± 0.23 % I.D./gram
same,% I.D./gram,"[1]; lung, cycloheximide-treated rats, 1 hr.",0.23 ± 0.03 % I.D./gram
same,% I.D./gram,"[1]; lung, cycloheximide-treated rats, 2 hr.",0.11 ± 0.02 % I.D./gram
same,% I.D./gram,"[1]; muscle, control rats, 5 min.",0.14 ± 0.01 % I.D./gram
same,% I.D./gram,"[1]; muscle, control rats, 1 hr.",0.08 ± 0.01 % I.D./gram
same,% I.D./gram,"[1]; muscle, control rats, 2 hr.",0.03 ± 0.00 % I.D./gram
same,% I.D./gram,"[1]; muscle, cycloheximide-treated rats, 5 min.",0.09 ± 0.00 % I.D./gram
same,% I.D./gram,"[1]; muscle, cycloheximide-treated rats, 1 hr.",0.10 ± 0.02 % I.D./gram
same,% I.D./gram,"[1]; muscle, cycloheximide-treated rats, 2 hr.",0.06 ± 0.00 % I.D./gram
same,"uptake in spleen, treated rats higher than control","[1]; spleen, 1-hour post-i.v. injection, cycloheximide-treated vs control",184%
same,% I.D./gram,"[1]; spleen, control rats, 5 min.",1.14 ± 0.08 % I.D./gram
same,% I.D./gram,"[1]; spleen, control rats, 1 hr.",0.15 ± 0.05 % I.D./gram
same,% I.D./gram,"[1]; spleen, control rats, 2 hr.",0.06 ± 0.01 % I.D./gram
same,% I.D./gram,"[1]; spleen, cycloheximide-treated rats, 5 min.",2.24 ± 0.41 % I.D./gram
same,% I.D./gram,"[1]; spleen, cycloheximide-treated rats, 1 hr.",0.43 ± 0.05 % I.D./gram
same,% I.D./gram,"[1]; spleen, cycloheximide-treated rats, 2 hr.",0.11 ± 0.03 % I.D./gram
same,% I.D./gram,"[1]; thymus, control rats, 5 min.",0.23 ± 0.07 % I.D./gram
same,% I.D./gram,"[1]; thymus, control rats, 1 hr.",0.09 ± 0.01 % I.D./gram
same,% I.D./gram,"[1]; thymus, control rats, 2 hr.",0.04 ± 0.00 % I.D./gram
same,% I.D./gram,"[1]; thymus, cycloheximide-treated rats, 5 min.",0.38 ± 0.10 % I.D./gram
same,% I.D./gram,"[1]; thymus, cycloheximide-treated rats, 1 hr.",0.12 ± 0.02 % I.D./gram
same,% I.D./gram,"[1]; thymus, cycloheximide-treated rats, 2 hr.",0.06 ± 0.01 % I.D./gram
same,microPET uptake in the liver,[2],higher uptake

# — patent publication US8329686B2, “Isatin analogues and uses therefor” (Washington University, priority 2006, dated 2012)
